In ChEMBL document CHEMBL4831516, “Development of Membrane-Active Honokiol/Magnolol Amphiphiles as Potent Antibacterial Agents against Methicillin-Resistant Staphylococcus aureus (MRSA)” (J Med Chem, 2021):

Key:
Staphylococcus aureus [1] = experiment: Antibacterial activity against Staphylococcus aureus ATCC29213 assessed as inhibition of visible growth incubated for 16 to 18 hrs by CLSI method; assay type: functional; settings: time 16-18 hrs, read-out: MIC100
Staphylococcus aureus [2] = experiment: Antibacterial activity against methicillin-resistant Staphylococcus aureus clinical isolate M-13 assessed as inhibition of visible growth incubated for 16 to 18 hrs by CLSI method; assay type: functional; settings: time 16-18 hrs, read-out: MIC100
Micrococcus luteus = experiment: Antibacterial activity against Micrococcus luteus assessed as inhibition of visible growth incubated for 16 to 18 hrs by CLSI method; assay type: functional; settings: time 16-18 hrs, read-out: MIC100
Enterococcus faecalis = experiment: Antibacterial activity against Enterococcus faecalis ATCC29212 assessed as inhibition of visible growth incubated for 16 to 18 hrs by CLSI method; assay type: functional; settings: time 16-18 hrs, read-out: MIC100
Staphylococcus aureus [3] = experiment: Antibacterial activity against methicillin-resistant Staphylococcus aureus clinical isolate M-12 assessed as inhibition of visible growth incubated for 16 to 18 hrs by CLSI method; assay type: functional; settings: time 16-18 hrs, read-out: MIC100
Salmonella enterica [4] = experiment: Antibacterial activity against Salmonella enterica 349812 assessed as inhibition of visible growth incubated for 16 to 18 hrs by CLSI method; assay type: functional; settings: time 16-18 hrs, read-out: MIC100
Bacillus subtilis = experiment: Antibacterial activity against Bacillus subtilis assessed as inhibition of visible growth incubated for 16 to 18 hrs by CLSI method; assay type: functional; settings: time 16-18 hrs, read-out: MIC100
[5] = tested on: Stenotrophomonas maltophilia; experiment: Antibacterial activity against Stenotrophomonas maltophilia assessed as inhibition of visible growth incubated for 16 to 18 hrs by CLSI method; assay type: functional; settings: time 16-18 hrs, read-out: MIC100
Staphylococcus aureus [6] = experiment: Antibacterial activity against methicillin-resistant Staphylococcus aureus clinical isolate M-17 assessed as inhibition of visible growth incubated for 16 to 18 hrs by CLSI method; assay type: functional; settings: time 16-18 hrs, read-out: MIC100
Salmonella enterica [7] = experiment: Antibacterial activity against Salmonella enterica 8389 assessed as inhibition of visible growth incubated for 16 to 18 hrs by CLSI method; assay type: functional; settings: time 16-18 hrs, read-out: MIC100
Staphylococcus aureus [8] = experiment: Antibacterial activity against methicillin-resistant Staphylococcus aureus clinical isolate M-19 assessed as inhibition of visible growth incubated for 16 to 18 hrs by CLSI method; assay type: functional; settings: time 16-18 hrs, read-out: MIC100
[9] = Selectivity index, HC50 for hemolytic activity in sheep RBC to MIC for antibacterial activity against Staphylococcus aureus ATCC29213; assay type: toxicity; settings: sheep red blood cells (erythrocytes), read-out: Selectivity Index
Staphylococcus aureus [10] = experiment: Antibacterial activity against methicillin-resistant Staphylococcus aureus clinical isolate M-18 assessed as inhibition of visible growth incubated for 16 to 18 hrs by CLSI method; assay type: functional; settings: time 16-18 hrs, read-out: MIC100
Staphylococcus aureus [11] = experiment: Antibacterial activity against methicillin-resistant Staphylococcus aureus clinical isolate M-11 assessed as inhibition of visible growth incubated for 16 to 18 hrs by CLSI method; assay type: functional; settings: time 16-18 hrs, read-out: MIC100
Staphylococcus aureus [12] = experiment: Antibacterial activity against methicillin-resistant Staphylococcus aureus clinical isolate M-15 assessed as inhibition of visible growth incubated for 16 to 18 hrs by CLSI method; assay type: functional; settings: time 16-18 hrs, read-out: MIC100
Escherichia coli = experiment: Antibacterial activity against Escherichia coli ATCC25922 assessed as inhibition of visible growth incubated for 16 to 18 hrs by CLSI method; assay type: functional; settings: time 16-18 hrs, read-out: MIC100
Staphylococcus aureus [13] = experiment: Antibacterial activity against methicillin-resistant Staphylococcus aureus clinical isolate M-16 assessed as inhibition of visible growth incubated for 16 to 18 hrs by CLSI method; assay type: functional; settings: time 16-18 hrs, read-out: MIC100
Staphylococcus aureus [14] = experiment: Antibacterial activity against methicillin-resistant Staphylococcus aureus clinical isolate M-14 assessed as inhibition of visible growth incubated for 16 to 18 hrs by CLSI method; assay type: functional; settings: time 16-18 hrs, read-out: MIC100
Staphylococcus aureus [15] = experiment: Antibacterial activity against methicillin-resistant Staphylococcus aureus clinical isolate M-20 assessed as inhibition of visible growth incubated for 16 to 18 hrs by CLSI method; assay type: functional; settings: time 16-18 hrs, read-out: MIC100
[16] = Hemolytic activity in sheep RBC assessed as hemolysis incubated for 1 hr; assay type: ADME, cell-based, Ovis aries, Erythrocyte; settings: sheep red blood cells (erythrocytes)

SMILES	MIC (Staphylococcus aureus [1])	MIC (Staphylococcus aureus [2])	MIC (Micrococcus luteus)	MIC (Enterococcus faecalis)	MIC (Staphylococcus aureus [3])	MIC (Salmonella enterica [4])	MIC (Bacillus subtilis)	MIC [5]	MIC (Staphylococcus aureus [6])	MIC (Salmonella enterica [7])	MIC (Staphylococcus aureus [8])	selectivity ratio [9]	MIC (Staphylococcus aureus [10])	MIC (Staphylococcus aureus [11])	MIC (Staphylococcus aureus [12])	MIC (Escherichia coli)	MIC (Staphylococcus aureus [13])	MIC (Staphylococcus aureus [14])	MIC (Staphylococcus aureus [15])	HC50 at 1 h [16]
C=CCc1ccc(OCCC[N+](C)(C)CC(=O)N(CCCC)CCCC)c(-c2ccc(OCCC[N+](C)(C)CC(=O)N(CCCC)CCCC)c(CC=C)c2)c1.[Br-].[Br-]	4 µg/mL	8 µg/mL	1 µg/mL	2 µg/mL	8 µg/mL	16 µg/mL	2 µg/mL	4 µg/mL	8 µg/mL	8 µg/mL	8 µg/mL	270	8 µg/mL	8 µg/mL	8 µg/mL	4 µg/mL	8 µg/mL	8 µg/mL	8 µg/mL	1080 µg/mL
C=CCc1ccc(OCCC[N+](C)(C)CC(=O)NCCCCC)c(-c2ccc(OCCC[N+](C)(C)CC(=O)NCCCCC)c(CC=C)c2)c1.[Br-].[Br-]	2 µg/mL	4 µg/mL	4 µg/mL	4 µg/mL	2 µg/mL	8 µg/mL	8 µg/mL	16 µg/mL	2 µg/mL	8 µg/mL	2 µg/mL	546	2 µg/mL	4 µg/mL	2 µg/mL	16 µg/mL	2 µg/mL	4 µg/mL	4 µg/mL	1090 µg/mL
C=CCc1ccc(O)c(-c2cc(CC=C)ccc2OCC[N+](C)(C)CC(=O)NCCCCCC)c1.[Br-]	4 µg/mL	8 µg/mL	4 µg/mL	16 µg/mL	8 µg/mL	64 µg/mL	4 µg/mL	64 µg/mL	8 µg/mL	64 µg/mL	8 µg/mL	181	8 µg/mL	8 µg/mL	4 µg/mL	32 µg/mL	4 µg/mL	4 µg/mL	4 µg/mL	723 µg/mL
C=CCc1ccc(O)c(-c2cc(CC=C)ccc2OCC[N+](C)(C)CC(=O)NCCCC)c1.[Br-]	4 µg/mL	8 µg/mL	4 µg/mL	8 µg/mL	8 µg/mL	32 µg/mL	2 µg/mL	32 µg/mL	4 µg/mL	32 µg/mL	4 µg/mL	143	4 µg/mL	8 µg/mL	4 µg/mL	32 µg/mL	4 µg/mL	4 µg/mL	4 µg/mL	573 µg/mL
C=CCc1ccc(OCCCC[N+](C)(C)CC(=O)NCCCCC)c(-c2ccc(OCCCC[N+](C)(C)CC(=O)NCCCCC)c(CC=C)c2)c1.[Br-].[Br-]	4 µg/mL	2 µg/mL	2 µg/mL	2 µg/mL	2 µg/mL	8 µg/mL	2 µg/mL	16 µg/mL	2 µg/mL	8 µg/mL	2 µg/mL	112	2 µg/mL	1 µg/mL	2 µg/mL	16 µg/mL	2 µg/mL	2 µg/mL	2 µg/mL	448 µg/mL
C=CCc1ccc(O)c(-c2cc(CC=C)ccc2OCCC[N+](C)(C)CC(=O)NCCCC)c1.[Br-]	2 µg/mL	4 µg/mL	1 µg/mL	4 µg/mL	4 µg/mL	32 µg/mL	1 µg/mL	32 µg/mL	4 µg/mL	32 µg/mL	4 µg/mL	298	4 µg/mL	8 µg/mL	4 µg/mL	8 µg/mL	4 µg/mL	4 µg/mL	4 µg/mL	596 µg/mL
